Columns and labels:
Format in all cases: in vivo, Helianthus annuus
[1] = system: sunflower line IB920 (A205V); experiment: Greenhouse imazapir dose response, IB920; conditions: 14 DAT
Description: (§1) A greenhouse study was conducted to quantify and contrast the imazapir sensivity of the mutants A122T and A205V in different genetic backgrounds at the whole plant level in sunflower. Seeds of the different sunflower lines that were used in this study were obtained under field conditions.
(§2) Seeds were sown in Petri dishes and, after germination, plantlets were transplanted to pots of 10 cm of diameter in a potting media consisting of equal parts of vermiculite, soil and sand. Plants were grown in a greenhouse under natural light conditions supplemented with 400 W sodium halide lamps to provide a 16 hrs daylength. Day/night temperatures were 25 and 20° C., respectively. At the V2 stage 10 plants of each genotype were randomly assigned to each treatment consisting of […] imazapir doses (0, 40, 80, 160, 240, 320, 400 and 480 g ai/ha), and a zero-time biomass determination. Experiment was arranged as a randomized block design with a full factorial (sunflower line×treatment) arrangement of treatments and 10 replications.
(§3) On the day of herbicide application ten plants of each genotype were cut at the cotyledonal node and dried at 60° C. for 48 hrs zero-time for dried weight determination. […] Height was determined as the distance between the cotyledonal node and the apex of each plant. For root biomass determination, each plant was taken from the pot and the potting media was washed out from the roots. Above ground biomass data from each line were converted to biomass accumulation after application by subtracting the appropriate average zero-time biomass from each sample. Dry biomass data were converted to percentages of the untreated control plants within each line to allow direct comparisons between groups.

[2] = system: sunflower hybrid TH6 (A122T); experiment: Greenhouse imazapir dose response, TH6; conditions: 14 DAT
Description: as §1, §2, §3

[3] = system: sunflower restorer line IR79 (A205V); experiment: Greenhouse imazapir dose response, IR79; conditions: 14 DAT
Description: as §1, §2, §3

[4] = system: Clearfield sunflower variety A; experiment: Greenhouse spray injury rating, Clearfield variety A; conditions: imazapyr 240 gm ai/ha, scale 0-9
From the text: Sunflower lines S4897, Clearfield® sunflower varieties A, B, C and a conventional non-Clearfield variety were sprayed with three rates of imazamox (Raptor™), 100, 200 and 300 gm ai/ha plus 0.5% Sun It II and two rates of imazapyr (Arsenal™) 160 and 360 gm ai/ha plus 0.5% Sun It II when the plants were at the two to three leaf stage. Ratings were taken at 14 days after application (DAT) for injury. Injury was rated on a scale from 0 to 9 where 0=no injury to 9=dead plant. Twelve plants were sprayed per herbicide/rate treatment. Statistical analysis was conducted with STATGRAPHICS Plus 5.0 by using ANOVA and LSD procedures.
After plants were sprayed, it was realized that a height difference between S4897 and other sunflower varieties would have impacted the actual herbicide dose that was delivered. The spray boom height had been calibrated against S4897 and since the other varieties were taller and closer to the boom they would have received a greater dose of herbicide. Rates were recalibrated for the other varieties to determine the approximate dose they would have received. Assessments were made as presented in Table 2 since it was not possible to make a direct rate comparison due to the effect of the height. For example injury scores were compare for S4897 treated imazamox rate 100 gm ai/ha to the other varieties treated at 75 gm ai/ha. The treatment dose of 300 gm ai/ha for line S4897 was equivalent to the treatment of 200 gm ai/ha for the other varieties, which […].

[5] = system: sunflower restorer line TH10 (A205V); experiment: Greenhouse imazapir dose response, TH10; conditions: 14 DAT
Description: as §1, §2, §3

CC(C)C1(C)N=C(c2ncccc2C(=O)O)NC1=O (stereo not drawn) [Imazapyr, imazapyr]
biomass accumulation, % of untreated ([1]; 0.5x (40 g ai/ha)): 93.9% | plant height, % of untreated ([1]; 0.5x (40 g ai/ha)): 96.2% | root dry weight, % of untreated ([1]; 0.5x (40 g ai/ha)): 94.0% | biomass accumulation, % of untreated ([1]; 1x (80 g ai/ha)): 87.9% | plant height, % of untreated ([1]; 1x (80 g ai/ha)): 80.0% | root dry weight, % of untreated ([1]; 1x (80 g ai/ha)): 89.6% | biomass accumulation, % of untreated ([1]; 2x (160 g ai/ha)): 58.8% | plant height, % of untreated ([1]; 2x (160 g ai/ha)): 61.5% | root dry weight, % of untreated ([1]; 2x (160 g ai/ha)): 50.7% | biomass accumulation, % of untreated ([1]; 3x (240 g ai/ha)): 46.4% | plant height, % of untreated ([1]; 3x (240 g ai/ha)): 40.9% | root dry weight, % of untreated ([1]; 3x (240 g ai/ha)): 37.3% | biomass accumulation, % of untreated ([1]; 4x (320 g ai/ha)): 35.5% | plant height, % of untreated ([1]; 4x (320 g ai/ha)): 27.9% | root dry weight, % of untreated ([1]; 4x (320 g ai/ha)): 32.8% | biomass accumulation, % of untreated ([1]; 5x (400 g ai/ha)): 33.9% | plant height, % of untreated ([1]; 5x (400 g ai/ha)): 30.0% | root dry weight, % of untreated ([1]; 5x (400 g ai/ha)): 25.4% | biomass accumulation, % of untreated ([1]; 6x (480 g ai/ha)): 29.4% | plant height, % of untreated ([1]; 6x (480 g ai/ha)): 27.1% | root dry weight, % of untreated ([1]; 6x (480 g ai/ha)): 19.4% | Phytotoxicity Index ([2]; 0.5x (40 g ai/ha)): 0.5 | biomass accumulation, % of untreated ([2]; 0.5x (40 g ai/ha)): 100% | plant height, % of untreated ([2]; 0.5x (40 g ai/ha)): 99.2% | root dry weight, % of untreated ([2]; 0.5x (40 g ai/ha)): 100% | Phytotoxicity Index ([2]; 1x (80 g ai/ha)): 0.5 | biomass accumulation, % of untreated ([2]; 1x (80 g ai/ha)): 97.2% | plant height, % of untreated ([2]; 1x (80 g ai/ha)): 98.6% | root dry weight, % of untreated ([2]; 1x (80 g ai/ha)): 98.1% | Phytotoxicity Index ([2]; 2x (160 g ai/ha)): 0.5 | biomass accumulation, % of untreated ([2]; 2x (160 g ai/ha)): 97.9% | plant height, % of untreated ([2]; 2x (160 g ai/ha)): 100.3% | root dry weight, % of untreated ([2]; 2x (160 g ai/ha)): 96.2% | Phytotoxicity Index ([2]; 3x (240 g ai/ha)): 0.5 | biomass accumulation, % of untreated ([2]; 3x (240 g ai/ha)): 98.2% | plant height, % of untreated ([2]; 3x (240 g ai/ha)): 99.6% | root dry weight, % of untreated ([2]; 3x (240 g ai/ha)): 79.3% | Phytotoxicity Index ([2]; 4x (320 g ai/ha)): 0.5 | biomass accumulation, % of untreated ([2]; 4x (320 g ai/ha)): 97.8% | plant height, % of untreated ([2]; 4x (320 g ai/ha)): 101.0% | root dry weight, % of untreated ([2]; 4x (320 g ai/ha)): 78.4% | Phytotoxicity Index ([2]; 5x (400 g ai/ha)): 0.5 | biomass accumulation, % of untreated ([2]; 5x (400 g ai/ha)): 85.1% | plant height, % of untreated ([2]; 5x (400 g ai/ha)): 87.0% | root dry weight, % of untreated ([2]; 5x (400 g ai/ha)): 85.8% | Phytotoxicity Index ([2]; 6x (480 g ai/ha)): 0.5 | biomass accumulation, % of untreated ([2]; 6x (480 g ai/ha)): 79.5% | plant height, % of untreated ([2]; 6x (480 g ai/ha)): 79.6% | root dry weight, % of untreated ([2]; 6x (480 g ai/ha)): 57.3% | biomass accumulation, % of untreated ([3]; 0.5x (40 g ai/ha)): 94.4% | plant height, % of untreated ([3]; 0.5x (40 g ai/ha)): 92.8% | root dry weight, % of untreated ([3]; 0.5x (40 g ai/ha)): 98.6% | biomass accumulation, % of untreated ([3]; 1x (80 g ai/ha)): 74.0% | plant height, % of untreated ([3]; 1x (80 g ai/ha)): 80.9% | root dry weight, % of untreated ([3]; 1x (80 g ai/ha)): 53.4% | biomass accumulation, % of untreated ([3]; 2x (160 g ai/ha)): 67.7% | plant height, % of untreated ([3]; 2x (160 g ai/ha)): 74.9% | root dry weight, % of untreated ([3]; 2x (160 g ai/ha)): 42.5% | biomass accumulation, % of untreated ([3]; 3x (240 g ai/ha)): 49.1% | plant height, % of untreated ([3]; 3x (240 g ai/ha)): 55.7% | root dry weight, % of untreated ([3]; 3x (240 g ai/ha)): 38.4% | biomass accumulation, % of untreated ([3]; 4x (320 g ai/ha)): 44.5% | plant height, % of untreated ([3]; 4x (320 g ai/ha)): 52.8% | root dry weight, % of untreated ([3]; 4x (320 g ai/ha)): 31.5% | biomass accumulation, % of untreated ([3]; 5x (400 g ai/ha)): 40.1% | plant height, % of untreated ([3]; 5x (400 g ai/ha)): 41.7% | root dry weight, % of untreated ([3]; 5x (400 g ai/ha)): 23.3% | biomass accumulation, % of untreated ([3]; 6x (480 g ai/ha)): 35.3% | plant height, % of untreated ([3]; 6x (480 g ai/ha)): 33.2% | root dry weight, % of untreated ([3]; 6x (480 g ai/ha)): 21.9% | Injury at 14 DAT [4]: 5.0 c | Phytotoxicity Index ([5]; 0.5x (40 g ai/ha)): 0 | biomass accumulation, % of untreated ([5]; 0.5x (40 g ai/ha)): 99.2% | plant height, % of untreated ([5]; 0.5x (40 g ai/ha)): 99.2% | root dry weight, % of untreated ([5]; 0.5x (40 g ai/ha)): 90.3% | Phytotoxicity Index ([5]; 1x (80 g ai/ha)): 0 | biomass accumulation, % of untreated ([5]; 1x (80 g ai/ha)): 85.0% | plant height, % of untreated ([5]; 1x (80 g ai/ha)): 98.1% | root dry weight, % of untreated ([5]; 1x (80 g ai/ha)): 69.9% | Phytotoxicity Index ([5]; 2x (160 g ai/ha)): 3.1 | biomass accumulation, % of untreated ([5]; 2x (160 g ai/ha)): 58.1% | plant height, % of untreated ([5]; 2x (160 g ai/ha)): 63.6% | root dry weight, % of untreated ([5]; 2x (160 g ai/ha)): 41.3% | Phytotoxicity Index ([5]; 3x (240 g ai/ha)): 3.9 | biomass accumulation, % of untreated ([5]; 3x (240 g ai/ha)): 48.1% | plant height, % of untreated ([5]; 3x (240 g ai/ha)): 51.9% | root dry weight, % of untreated ([5]; 3x (240 g ai/ha)): 42.8% | Phytotoxicity Index ([5]; 4x (320 g ai/ha)): 5.9 | biomass accumulation, % of untreated ([5]; 4x (320 g ai/ha)): 28.8% | plant height, % of untreated ([5]; 4x (320 g ai/ha)): 27.5% | root dry weight, % of untreated ([5]; 4x (320 g ai/ha)): 22.3% | Phytotoxicity Index ([5]; 5x (400 g ai/ha)): 6.9 | biomass accumulation, % of untreated ([5]; 5x (400 g ai/ha)): 27.4% | plant height, % of untreated ([5]; 5x (400 g ai/ha)): 26.0% | root dry weight, % of untreated ([5]; 5x (400 g ai/ha)): 22.7% | Phytotoxicity Index ([5]; 6x (480 g ai/ha)): 6.7 | biomass accumulation, % of untreated ([5]; 6x (480 g ai/ha)): 24.9% | plant height, % of untreated ([5]; 6x (480 g ai/ha)): 29.3% | root dry weight, % of untreated ([5]; 6x (480 g ai/ha)): 16.4%

From patent US20150181873A1, “HERBICIDE-RESISTANT SUNFLOWER PLANTS, POLYNUCLEOTIDES ENCODING HERBICIDE=RESISTANT ACETO HYDROXY ACID SYNTHASE LARGE SUBUNIT PROTEINS, AND METHODS OF USE” (NIDERA S.A., priority 2013, published 2015)
